Measurements: patent US20240247015A1, “PHOSPHORUS DERIVATIVES AS NOVEL SOS1 INHIBITORS” (BAYER AKTIENGESELLSCHAFT, priority 2021, published 2024)
pIC50: −log10 of the molar value.

Molecular target: interaction of human SOS1 (SOS1) with human K-RasG12C (Homo sapiens (Human), UniProt Q07889)
Assay: Biochemical assay: hK-RasG12C interaction assay with hSOS1 (HTRF)
Format: binding
Settings: GST-hK-RasG12C with His-hSOS1, 60 min incubation at 20° C., mean, read-out: K-RasG12C - SOS interaction assay IC50 (mean)
Method: Biochemical Assay: hK-RasG12C Interaction Assay with hSOS1 This assay quantifies the equilibrium interaction of human SOS1 (SOS1) with human K-Ras^G12^C (K-RasG12C). Detection of the interaction is achieved by measuring homogenous time-resolved fluorescence resonance energy transfer (HTRF) from antiGST-Europium (FRET donor) bound to GST-K-RasG12C to anti-6His-XL665 bound to His-tagged hSOS1 (FRET-acceptor). The assay buffer containes 5 mM HEPES pH 7.4 (Applichem), 150 mM NaCl (Sigma), […] (Promega), 1 mM DTT (Thermofisher), 0.05% BSA Fraction V, pH 7.0, (ICN Biomedicals), 0.0025% (v/v) Igepal (Sigma) and 100 mM KF (FLUKA). The expression and purification of N-terminally GST-tagged human K-RasG12C (termed GST-hK-RasG12C) and N-terminally His-tagged human SOS1 (termed His10-hSOS1) is described in WO 2019/201848, page 220 line 12-34 and page 222, line 13-25 (expression) and page 222, line 26 to page 223, line 17 (purification). Concentrations of protein batches used are optimized to be within the linear range of the HTRF signal. A Ras working solution is prepared in assay buffer containing typically 10 nM GST-hK-RasG12C and 2 nM antiGST-Eu(K) (Cisbio, France). A SOS1 working solution is prepared in assay buffer containing typically 20 nM His-hSOS1 and 10 nM anti-6His-XL665 (Cisbio, France). An inhibitor control solution is prepared in assay buffer containing nM anti-6His-XL665 without SOS1. Fifty nl of a 100-fold concentrated solution of the test compound in DMSO are transferred into a black microtiter test plate (384 or 1536, Greiner Bio-One, Germany). For this, either a Hummingbird liquid handler (Digilab, MA, USA) or an Echo acoustic system (Labcyte, CA, USA) is used. All steps of the assay are performed at 20° C. A volume of 2.5 μl of the Ras working solution is added to all wells of the test plate using a Multidrop dispenser (Thermo Labsystems). After 2 min preincubation, 2.5 μl of the SOS1 working solution are added to all wells except for those wells at the side of the test plate that are subsequently filled with 2.5 μl of the inhibitor control solution. After 60 min incubation the fluorescence is measured with a Pherastar (BMG, Germany) using the HTRF module (excitation 337 nm, emission 1: 620 nm, emission 2: 665 nm). The ratiometric data (emission 2 divided by emission 1) are normalized using the controls (DMSO=0% inhibition, inhibition control wells with inhibitor control solution=100% inhibition). Compounds are tested in duplicates at up to 11 concentrations (for 20 μM, 5,7 μM, 1,6 μM, 0.47 μM, 0.13 μM, 38 nM, 11 nM, 3.1 nM, 0.89 nM, 0.25 nM and 0.073 nM). IC50 values are calculated by 4-Parameter fitting using a commercial software package (Genedata Screener, Switzerland).

Sequence of interaction of human SOS1 (SOS1) with human K-RasG12C (Q07889 564-1049 limits assumed): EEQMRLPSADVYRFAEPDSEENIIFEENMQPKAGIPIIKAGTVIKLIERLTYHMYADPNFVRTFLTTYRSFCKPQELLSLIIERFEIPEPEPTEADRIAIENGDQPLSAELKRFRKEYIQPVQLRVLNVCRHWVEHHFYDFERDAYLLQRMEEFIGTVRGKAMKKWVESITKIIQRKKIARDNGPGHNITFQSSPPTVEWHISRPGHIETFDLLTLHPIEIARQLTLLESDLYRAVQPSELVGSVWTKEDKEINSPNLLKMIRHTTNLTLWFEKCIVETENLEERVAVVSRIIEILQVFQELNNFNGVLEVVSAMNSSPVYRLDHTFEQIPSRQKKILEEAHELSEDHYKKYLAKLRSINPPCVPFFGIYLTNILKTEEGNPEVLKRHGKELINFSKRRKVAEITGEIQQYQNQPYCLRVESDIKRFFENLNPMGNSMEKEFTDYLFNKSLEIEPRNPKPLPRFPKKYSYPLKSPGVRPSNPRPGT

SMILES	pIC50
COCC(F)(F)c1cccc([C@@H](C)Nc2nc(C)nc3cnc(P4(=O)CCCC4)cc23)c1F [Example 93, 1-[4-{{(1R)-1-[3-(1,1-difluoro-2-methoxyethyl)-2-fluorophenyl]ethyl}amino)-2-methylpyrido[3,4-d]pyrimidin-6-yl]-1lambda^5-phospholan-1-one]	7.43
CCP(C)(=O)c1cc2c(N[C@H](C)c3cccc(C(F)(F)C(C)(C)O)c3F)nc(C)nc2cn1 (stereo partly drawn) [Example 67, 1-{3-[(1R)-1-{{6-[ethyl(methyl)phosphoryl]-2-methylpyrido[3,4-d]pyrimidin-4-yl}amino)ethyl]-2-fluorophenyl}-1,1-difluoro-2-methylpropan-2-ol]	7.17
CC(=O)N1CCP(=O)(c2cc3c(N[C@H](C)c4cccc(C(F)F)c4)nc(C)nc3cn2)CC1 [Example 57, 1-acetyl-4-[4-{{(1R)-1-[3-(difluoromethyl)phenyl]ethyl}amino)-2-methylpyrido[3,4-d]pyrimidin-6-yl]-1,4lambda^5-azaphosphinan-4-one]	7.71
CCP(=O)(CC)c1cc2c(N[C@H](C)c3cccc(C(F)(F)F)c3C)nc(C)nc2cn1 [Example 96, 6-(diethylphosphoryl)-2-methyl-N-{(1R)-1-[2-methyl-3-(trifluoromethyl)phenyl]ethyl}pyrido[3,4-d]pyrimidin-4-amine]	7.30
Cc1nc(N[C@H](C)c2cccc(C(F)(F)F)c2C)c2cc(P3(=O)CCN(C(=O)C4(CO)CC4)CC3)ncc2n1 [Example 178, 1-[1-(hydroxymethyl)cyclopropane-1-carbonyl]-4-[2-methyl-4-{{(1R)-1-[2-methyl-3-(trifluoromethyl)phenyl]ethyl}amino)pyrido[3,4-d]pyrimidin-6-yl]-1,4lambda^5-azaphosphinan-4-one]	8.10
[2H]C([2H])(O)C(F)(F)c1cccc([C@@H](C)Nc2nc(C)nc3cnc(P4(=O)CCCC4)cc23)c1F [Example 61, 1-(4-{[(1R)-1-{3-[1,1-difluoro-2-hydroxy(^2H2)ethyl]-2-fluorophenyl}ethyl]amino}-2-methylpyrido[3,4-d]pyrimidin-6-yl)-1lambda^5-phospholan-1-one]	8.01
COC(C)(C)C(F)(F)c1cccc([C@@H](C)Nc2nc(C)nc3cnc(P4(=O)CCCC4)cc23)c1F [Example 122, 1-[4-({(1R)-1-[3-(1,1-difluoro-2-methoxy-2-methylpropyl)-2-fluorophenyl]ethyl}amino)-2-methylpyrido[3,4-d]pyrimidin-6-yl]-1lambda^5-phospholan-1-one]	7.20
Cc1nc(N[C@H](C)c2cccc(C(F)(F)CO)c2F)c2cc(P3(=O)CC=CC3)ncc2n1 [Example 59, 1-[4-{{(1R)-1-[3-(1,1-difluoro-2-hydroxyethyl)-2-fluorophenyl]ethyl}amino)-2-methylpyrido[3,4-d]pyrimidin-6-yl]-2,5-dihydro-1H-1lambda^5-phosphol-1-one]	8.15
Cc1nc(N[C@H](C)c2cccc(C(F)(F)C(C)(C)O)c2F)c2cc(P3(=O)CCN(C(=O)C4CC4)CC3)ncc2n1 [Example 172, 1-(cyclopropanecarbonyl)-4-[4-{{(1R)-1-[3-(1,1-difluoro-2-hydroxy-2-methylpropyl)-2-fluorophenyl]ethyl}amino)-2-methylpyrido[3,4-d]pyrimidin-6-yl]-1,4lambda^5-azaphosphinan-4-one]	8.32
CCP(=O)(CC)c1cnc2nc(C)nc(N[C@H](C)c3cccc(C(F)(F)C(C)(C)O)c3F)c2c1 [Example 103, 1-{3-[(1R)-1-{[6-(diethylphosphoryl)-2-methylpyrido[2,3-d]pyrimidin-4-yl]amino}ethyl]-2-fluorophenyl}-1,1-difluoro-2-methylpropan-2-ol]	7.85
Cc1nc(N[C@H](C)c2cccc(C(F)(F)C(C)(C)O)c2F)c2cc(P(=O)(C(C)C)C(C)C)cnc2n1 [Example 15, 1-{3-[(1R)-1-({6-[di(propan-2-yl)phosphoryl]-2-methylpyrido[2,3-d]pyrimidin-4-yl}amino)ethyl]-2-fluorophenyl}-1,1-difluoro-2-methylpropan-2-ol]	7.33
Cc1nc(N[C@H](C)c2cccc(C(F)(F)C(N)=O)c2F)c2cc(P(C)(C)=O)ncc2n1 [Example 48, 2-{3-[(1R)-1-{[6-(dimethylphosphoryl)-2-methylpyrido[3,4-d]pyrimidin-4-yl]amino}ethyl]-2-fluorophenyl}-2,2-difluoroacetamide]	7.53
Cc1nc(N[C@H](C)c2cccc(C(F)F)c2F)c2cc(P(=O)(C(C)C)C(C)C)ncc2n1 [Example 108, N-{(1R)-1-[3-(difluoromethyl)-2-fluorophenyl]ethyl}-6-[di(propan-2-yl)phosphoryl]-2-methylpyrido[3,4-d]pyrimidin-4-amine]	6.82
CCP(=O)(CC)c1cc2c(N[C@H](C)c3cccc(C(F)(F)CO)c3F)nc(C)nc2cn1 [Example 64, 2-{3-[(1R)-1-{[6-(diethylphosphoryl)-2-methylpyrido[3,4-d]pyrimidin-4-yl]amino}ethyl]-2-fluorophenyl}-2,2-difluoroethan-1-ol]	7.75
CCOC(=O)N1CCP(=O)(c2cc3c(N[C@H](C)c4cccc(C(F)(F)F)c4C)nc(C)nc3cn2)CC1 [Example 189]	7.69
CC(=O)N(C)CC(F)(F)c1cccc([C@@H](C)Nc2nc(C)nc3cnc(P4(=O)CCN(C(C)=O)CC4)cc23)c1F [Example 201]	8.24
Cc1nc(N[C@H](C)c2cccc(C(F)(F)F)c2C)c2cc(P(=O)(C(C)C)C(C)C)c(C)nc2n1 [Example 102, 6-[di(propan-2-yl)phosphoryl]-2,7-dimethyl-N-{(1R)-1-[2-methyl-3-(trifluoromethyl)phenyl]ethyl}pyrido[2,3-d]pyrimidin-4-amine]	7.10
Cc1nc(N[C@H](C)c2cccc(C(F)F)c2F)c2cc(P3(=O)CCCC3)c(C)nc2n1 [Example 126, 1-[4-{{(1R)-1-[3-(difluoromethyl)-2-fluorophenyl]ethyl}amino)-2,7-dimethylpyrido[2,3-d]pyrimidin-6-yl]-1lambda^5-phospholan-1-one]	8.03
CC(=O)N1CCP(=O)(c2cc3c(N[C@H](C)c4cccc(C(F)(F)F)c4)nc(C)nc3cn2)CC1 [Example 192]	7.93
CCP(C)(=O)c1cc2c(N[C@H](C)c3cccc(C(F)(F)C(C)O)c3F)nc(C)nc2cn1 (single isomer, unassigned) [Example 77, (2R*)-1-{3-[(1R)-1-{{6-[ethyl(methyl)phosphoryl]-2-methylpyrido[3,4-d]pyrimidin-4-yl}amino)ethyl]-2-fluorophenyl}-1,1-difluoropropan-2-ol]	7.75
CC(=O)N1CCP(=O)(c2cc3c(N[C@H](C)c4cccc(C(F)(F)F)c4C)nc(C(F)(F)F)nc3cn2)CC1 [Example 194]	7.92
Cc1nc(N[C@H](C)c2cccc(C(F)(F)C(C)O)c2F)c2cc(P(C)(=O)C(C)C)ncc2n1 (single isomer, unassigned) [Example 84, (2R*)-1,1-difluoro-1-{2-fluoro-3-[(1R)-1-({2-methyl-6-[methyl(propan-2-yl)phosphoryl]pyrido[3,4-d]pyrimidin-4-yl}amino)ethyl]phenyl}propan-2-ol]	7.62
Cc1nc(N[C@H](C)c2cccc(C(F)(F)F)c2C)c2cc(P3(=O)CCN(C(N)=O)CC3)ncc2n1 [Example 186]	8.33
CC(=O)N(C)CC(F)(F)c1cccc([C@@H](C)Nc2nc(C)nc3cnc(P4(=O)CCN(C(=O)C5CC5)CC4)cc23)c1F [Example 182, N-(2-{3-[(1R)-1-({6-[1-(cyclopropanecarbonyl)-4-oxo-1,4lambda^5-azaphosphinan-4-yl]-2-methylpyrido[3,4-d]pyrimidin-4-yl}amino)ethyl]-2-fluorophenyl}-2,2-difluoroethyl)-N-methylacetamide]	8.40
CCP(C)(=O)c1cc2c(N[C@H](C)c3cccc(C(F)(F)C(C)(C)O)c3F)nc(C)nc2cn1 (single isomer, unassigned) [Example 68]	7.55
